For orientation: Ki means a measure of affinity in units of concentration, obtained from inhibition or displacement.

For the assay, the target named is human GCGR (Homo sapiens (Human), UniProt P47871). Nature of the assay: Cellular functional assay, cAMP readout: glucagon stimulated cAMP in HEK293 cells expressing human GCGR (LANCE TR-FRET). The format is cell-based. Here is the method: IC50 Values in Cellular Functional Assays: cAMP Readout
human GCGR, sequence (P47871 26-477): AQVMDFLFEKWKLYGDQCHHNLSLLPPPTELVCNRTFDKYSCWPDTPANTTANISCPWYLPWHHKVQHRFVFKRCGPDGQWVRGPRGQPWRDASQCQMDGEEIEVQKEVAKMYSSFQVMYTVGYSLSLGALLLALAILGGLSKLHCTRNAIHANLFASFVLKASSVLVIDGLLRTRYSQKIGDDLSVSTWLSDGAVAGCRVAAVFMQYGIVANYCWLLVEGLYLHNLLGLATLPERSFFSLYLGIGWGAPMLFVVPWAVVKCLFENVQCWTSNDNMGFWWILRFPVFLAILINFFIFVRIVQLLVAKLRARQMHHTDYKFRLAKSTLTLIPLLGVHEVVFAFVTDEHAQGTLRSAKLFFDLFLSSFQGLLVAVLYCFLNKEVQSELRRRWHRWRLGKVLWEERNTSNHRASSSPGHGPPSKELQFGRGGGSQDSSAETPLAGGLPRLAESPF
Full-length human GCGR (Accession Number: NM000160) subcloned into pcDNA3.1 was stably transfected into HEK293 cells (hGluc-1 HEK) and maintained under G418 selection (500 μg/mL). Cell cultures were maintained in DMEM/F12 media supplemented with 10% FBS and 1% GlutaMax. Glucagon stimulated cAMP was quantified using LANCE technology as per manufacturer instructions. On the day of the experiment, spent media was removed and cells were washed with Hank's Buffered Saline solution (HBSS) and cells were harvested with non-enzymatic cell dissociation solution, then washed once with HBSS. Cells were re-suspended in stimulation buffer at a concentration of 0.83×10^6 cells/ml and cAMP detection antibody was added. 6 μl/well of this solution was then dispensed in a 384 well plate (cell density 5000 cells/well). Test compound was serially diluted in DMSO and 50 nl were dispensed on top of the cell solution and allowed to incubate for 30 minutes. 6 μl of a 2× glucagon solution (final concentration in assay 100 pM) was then added and the reaction was terminated after 5 minutes with the addition of detection mix. The resulting mixture was incubated, protected from light for 1.5 h. cAMP levels were quantified by TR-FRET in an EnVision instrument against a known standard. IC50's were generated by using a non-linear regression macro driven in Excel and converted to Ki values.
On the technique in general: TR-FRET usually uses a lanthanide donor and a delayed reading to cut background.
As for `Cc1cc(Cl)ccc1-c1ccc(NCc2ccc(C(F)(F)F)cc2-c2ccc(C(=O)NCCC(=O)O)cc2)cc1Cl` [Compound 1, 3-(2′-(((2,4′-dichloro-2′-methyl-[1,1′-biphenyl]-4-yl)amino)methyl)-5′-(trifluoromethyl)-[1,1′-biphenyl]-4-ylcarboxamido)propanoic acid], the affinity, expressed as Ki, was 57 nM.
For `O=C(O)CCNC(=O)c1ccc(-c2cc(C(F)(F)F)ccc2CNc2ccc(-c3ccc(Cl)cc3Cl)cc2)cc1` [Compound 4, 3-(2′-(((2′,4′-dichloro-[1,1′-biphenyl]-4-yl)amino)methyl)-5′-(trifluoromethyl)-[1,1′-biphenyl]-4-ylcarboxamido)propanoic acid], the affinity corresponds to a Ki of 150 nM.
The value for `Cc1cc(C(F)(F)F)ccc1-c1ccc(NCc2ccc(C(F)(F)F)cc2-c2ccc(C(=O)NCCC(=O)O)cc2)cc1Cl` [Compound 2, 3-(2′-(((2-chloro-2′-methyl-4′-(trifluoromethyl)-[1,1′-biphenyl]-4-yl)amino)methyl)-5′-(trifluoromethyl)-[1,1′-biphenyl]-4-ylcarboxamido)propanoic acid] was 42 nM; that for `Cc1cc(C(F)(F)F)ccc1-c1ccc(NCc2c(-c3ccc(C(=O)NCCC(=O)O)cc3)cc(C(F)(F)F)cc2C(C)C)cc1Cl` [Compound 17, 3-(2′-(((2-chloro-2′-methyl-4′-(trifluoromethyl)-[1,1′-biphenyl]-4-yl)amino)methyl)-3′-isopropyl-5′-(trifluoromethyl)-[1,1′-biphenyl]-4-ylcarboxamido)propanoic acid] was 30 nM; that for `COc1cc(C(F)(F)F)cc(-c2ccc(C(=O)NCCC(=O)O)cc2)c1CNc1ccc(-c2ccc(C(F)(F)F)cc2Cl)cc1` [Compound 16, 3-(2′-(((2′-chloro-4′-(trifluoromethyl)-[1,1′-biphenyl]-4-yl)amino)methyl)-3′-methoxy-5′-(trifluoromethyl)-[1,1′-biphenyl]-4-ylcarboxamido)propanoic acid] was 47 nM.
In turn, `COc1cc(C(F)(F)F)cc(-c2ccc(C(=O)NCCC(=O)O)cc2)c1CNc1ccc(-c2ccc(Cl)cc2)c(Cl)c1` [Compound 15, 3-(2′-(((2,4′-dichloro-[1,1′-biphenyl]-4-yl)amino)methyl)-3′-methoxy-5′-(trifluoromethyl)-[1,1′-biphenyl]-4-ylcarboxamido)propanoic acid] displayed a Ki of 57 nM.
As for `Cc1cc(Cl)ccc1-c1ccc(NCc2ccc(C(F)(F)F)cc2-c2ccc(C(=O)NCCC(=O)O)cc2C)cc1Cl` [Compound 5, 3-(2′-(((2,4′-dichloro-2′-methyl-[1,1′-biphenyl]-4-yl)amino)methyl)-2-methyl-5′-(trifluoromethyl)-[1,1′-biphenyl]-4-ylcarboxamido)propanoic acid], the affinity, expressed as Ki, was 89 nM.
Compound `Cc1cc(C(F)(F)F)ccc1-c1ccc(NCc2ccc(C(F)(F)F)cc2-c2ccc(C(=O)NCCC(=O)O)cc2C)cc1Cl` [Compound 6, 3-(2′-(((2-chloro-2′-methyl-4′-(trifluoromethyl)-[1,1′-biphenyl]-4-yl)amino)methyl)-2-methyl-5′-(trifluoromethyl)-[1,1′-biphenyl]-4-ylcarboxamido)propanoic acid] had a Ki of 70 nM.
`O=C(O)CCNC(=O)c1ccc(-c2cc(C(F)(F)F)ccc2CNc2ccc(-c3ccc(C(F)(F)F)cc3Cl)c(Cl)c2)cc1` [Compound 3, 3-(2′-(((2,2′-dichloro-4′-(trifluoromethyl)-[1,1′-biphenyl]-4-yl)amino)methyl)-5′-(trifluoromethyl)-[1,1′-biphenyl]-4-ylcarboxamido)propanoic acid] yielded a Ki of 67 nM.

The values above are taken from patent US9045389B2, “Biphenyl derivatives useful as glucagon receptor antagonists” (Janssen Pharmaceutica NV, priority 2011, dated 2015).
